Here are results for 18 compounds from patent publication US11292788B2, “IL-17 and IFN-gamma inhibition for the treatment of autoimmune diseases and chronic inflammation” (Immunic AG, priority 2017, dated 2022).

Molecules are shown by their SMILES. Read-outs that look alike come from different tables or passages of the source. Some results are limits rather than exact numbers.

Data set [1] is described as follows: Microsomal stability: incubation with human liver microsomes, residual parent compound by HPLC-MS/MS. The class given is in vitro ADME. As to conditions: up to 60 min, read-out: t1/2 hLM. Here is the method:
Metabolic stability of compounds of the present invention was determined by incubation with human liver microsomes and subsequent determination of residual amount of the respective compound (“parent compound”) by HPLC-MS/MS.
In order to achieve this, in a final reaction volume of 1000 μl, each compound was incubated at a final concentration of 1 μM with 0.5 mg/ml human liver microsomes (HLM Pool 50 Donors, 20 mg/ml, BD Gentest, #452156, LotNr 88114) in 0.1 M Potassium phosphate buffer at pH 7.4, with a cofactor in form of a NADPH regenerating system (Promega, #V9510) according to the manufacturers' specifications. The final DMSO concentration in each sample was 0.4%. The incubation was performed at 37° C. under shaking conditions (Thermomixer, 1400 rpm) for different time intervals up to 60 min. To stop the reaction, for each time point 200 μl of the reaction were taken out and 200 μl ice-cold acetonitrile was added. Then, the samples were centrifuged (4° C., 14000*g for 15 min). The supernatant was analyzed for residual parent compound concentration and scanned for metabolites using HPLC-MS/MS. By using optimized MS methods for each compound, the peak area under curve for the compound specific signal is determined. The change of the peak areas over the assay time of 60 min resemble the remaining parent compound in % of T0. By these points, a balancing line was set. The half-time, as well as the clearance, can then be calculated on the basis of the slope.
In general terms: Liver microsomes are vesicles of endoplasmic reticulum, rich in cytochrome P450 enzymes.

Another data set concerns IL-17F. Description: Cytokine assay: IL-17F production by human PBMC stimulated with PHA. The class given is cell-based. Conditions: IC50 class, read-out: IL-17F Inhib. In short, it runs like this: (§1)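 Human donor PBMC (1×10^5 cells/well) were activated with 2 μg/ml PHA and exposed to compounds for 48 h. Supernatant IL-17A, IL-17F and IFN-γ were measured by Luminex or ELISA. Screening used 10, 1, 0.1 and 0.01 μM; IC50 values came from semilogarithmic titrations.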

The subject of another data set is INF-γ. The data set can be described thus: Cytokine assay: INF-γ production by human PBMC stimulated with PHA. The class given is cell-based. As to conditions: IC50 class, read-out: IFN-gamma Inhib. In short, it runs like this: as §1
Another data set has as its system IL-17A. Description: Cytokine assay: IL-17A production by human PBMC stimulated with PHA. Conditions: IC50 class, read-out: IL-17A Inhib. The class given is cell-based. In short, it runs like this:
as §1

Setting [2] is: human liver microsomes 0.5 mg/ml, compound 1 μM, pH 7.4, 37° C.
Setting [3] is: pH 7.4, human liver microsomes, 1 μM compound, 0.5 mg/ml HLM, 37° C.

In the case of `COC(=O)c1c(-c2ccccc2Cl)noc1-c1cnn([C@H]2C[C@](C)(O)C2)c1C` [Example 18, methyl 3-(2-chlorophenyl)-5-(1-(3-hydroxy-3-methylcyclobutyl)-5-methyl-1H-pyrazol-4-yl)isoxazole-4-carboxylate], in data set [1] (setting [2]), the half-life at 1 μM is above 1.67 h. The IC50 in the data set on IL-17F was below 50 nM; in the data set on INF-γ, below 50 nM; in the data set with IL-17A it was 50 to 500 nM.
Consider `COC(=O)c1c(-c2ccccc2Cl)noc1-c1cnn(CCC(C)(C)O)c1C` [Example 19, methyl 3-(2-chlorophenyl)-5-[1-(3-hydroxy-3-methylbutyl)-5-methyl-1H-pyrazol-4-yl]-1,2-oxazole-4-carboxylate], for which the half-life at 1 μM in data set [1] (setting [2]) was above 1.67 h. For the same compound, the IC50 is 50 to 500 nM with IL-17F (Homo sapiens, PBMC); below 50 nM with INF-γ (Homo sapiens, PBMC); below 50 nM in the data set with IL-17A (Homo sapiens, PBMC).
Regarding `COC(=O)c1c(-c2c(F)cccc2Cl)noc1-c1cnn(C[C@H](C)O)c1C(F)(F)F` [Example 23, methyl (S)-3-(2-chloro-6-fluorophenyl)-5-(1-(2-hydroxypropyl)-5-(trifluoromethyl)-1H-pyrazol-4-yl)isoxazole-4-carboxylate], the half-life at 1 μM in data set [1] (setting [2]) lay in the range of 0.167 to 0.666 h. Besides, the IC50 in the data set on IL-17F (Homo sapiens, PBMC) was 50 to 500 nM; with INF-γ (Homo sapiens, PBMC), below 50 nM; in the data set with IL-17A (Homo sapiens, PBMC), 50 to 500 nM.
`COC(=O)c1c(-c2cccc(OC)c2Cl)noc1-c1cnn(CCC(C)(C)O)c1C` [Example 25, methyl 3-(2-chloro-3-methoxyphenyl)-5-[1-(3-hydroxy-3-methylbutyl)-5-methyl-1H-pyrazol-4-yl]-1,2-oxazole-4-carboxylate]: the half-life at 1 μM in data set [1] (setting [2]) is above 1.67 h. The IC50 in the data set on IL-17F (Homo sapiens, PBMC) is below 50 nM; in the data set with INF-γ (Homo sapiens, PBMC) it was below 50 nM; in the data set with IL-17A (Homo sapiens, PBMC), below 50 nM.
As to `Cc1c(-c2onc(-c3ccccc3Cl)c2C(=O)OC2CC2)cnn1[C@H]1C[C@@](C)(O)C1` [Example 53, cyclopropyl 3-(2-chlorophenyl)-5-{5-methyl-1-[3-hydroxy-3-methylcyclobutyl]-1H-pyrazol-4-yl}-1,2-oxazole-4-carboxylate], in data set [1] (setting [2]), the half-life at 1 μM is above 1.67 h. Further, the IC50 in the data set on IL-17F was below 50 nM; in the data set with INF-γ (Homo sapiens, PBMC), below 50 nM; in the data set on IL-17A, below 50 nM.
On to `CC(C)(O)Cn1ncc(-c2onc(-c3c(F)cccc3Cl)c2C(=O)OC2CC2)c1C(F)(F)F` [Example 55, cyclopropyl 3-(2-chloro-6-fluorophenyl)-5-[1-(2-hydroxy-2-methylpropyl)-5-(trifluoromethyl)-1H-pyrazol-4-yl]-1,2-oxazole-4-carboxylate], for which, in data set [1] (setting [2]), the half-life at 1 μM fell in the range of 0.667 to 1.67 h. The IC50 was below 50 nM with IL-17F (Homo sapiens, PBMC); below 50 nM with INF-γ (Homo sapiens, PBMC); below 50 nM in the data set with IL-17A (Homo sapiens, PBMC).
`C[C@@H](O)Cn1ncc(-c2onc(-c3c(F)cccc3Cl)c2C(=O)OC2COC2)c1C(F)(F)F` [Example 58, oxetan-3-yl 3-(2-chloro-6-fluorophenyl)-5-{1-[(2R)-2-hydroxypropyl]-5-(trifluoromethyl)-1H-pyrazol-4-yl}-1,2-oxazole-4-carboxylate]: the half-life at 1 μM in data set [1] (setting [2]) was 0.667 to 1.67 h. For the same compound, the IC50 was below 50 nM in the data set on IL-17F (Homo sapiens, PBMC); below 50 nM with INF-γ (Homo sapiens, PBMC); 50 to 500 nM with IL-17A (Homo sapiens, PBMC).
In the case of `Cc1c(-c2onc(-c3c(F)cccc3Cl)c2C(=O)OC2CC2)cnn1[C@H]1C[C@@](C)(O)C1` [Example 61, cyclopropyl 3-(2-chloro-6-fluorophenyl)-5-{5-methyl-1-[3-hydroxy-3-methylcyclobutyl]-1H-pyrazol-4-yl}-1,2-oxazole-4-carboxylate], the half-life at 1 μM in data set [1] (setting [2]) lay in the range of 0.667 to 1.67 h. The IC50 was below 50 nM in the data set on IL-17F (Homo sapiens, PBMC); below 50 nM with INF-γ (Homo sapiens, PBMC); below 50 nM in the data set on IL-17A (Homo sapiens, PBMC).
For the compound `COCc1c(-c2c(F)cccc2Cl)noc1-c1cnn([C@H]2C[C@@](C)(O)C2)c1C(F)(F)F` [Example 69, 3-(4-(3-(2-chloro-6-fluorophenyl)-4-(methoxymethyl)isoxazol-5-yl)-5-(trifluoromethyl)-1H-pyrazol-1-yl)-1-methylcyclobutan-1-ol], the half-life at 1 μM in data set [1] (setting [2]) was above 1.67 h. The IC50 was 50 to 500 nM with IL-17F (Homo sapiens, PBMC); below 50 nM in the data set on INF-γ (Homo sapiens, PBMC); 50 to 500 nM with IL-17A (Homo sapiens, PBMC).
Regarding `C[C@@H](O)Cn1ncc(-c2onc(-c3c(F)cccc3Cl)c2COC2CC2)c1C(F)(F)F` [Example 85, (2R)-1-(4-(3-(2-chloro-6-fluorophenyl)-4-(cyclopropoxymethyl)isoxazol-5-yl)-5-(trifluoromethyl)-1H-pyrazol-1-yl)propan-2-ol], the half-life at 1 μM in data set [1] (setting [2]) was in the range of 0.167 to 0.666 h. The IC50 in the data set on IL-17F (Homo sapiens, PBMC) is below 50 nM; in the data set on INF-γ (Homo sapiens, PBMC) it was below 50 nM; in the data set on IL-17A (Homo sapiens, PBMC), below 50 nM.
For the compound `C[C@]1(O)C[C@@H](n2ncc(-c3onc(-c4c(F)cccc4Cl)c3COC3CC3)c2C(F)(F)F)C1` [Example 86, 3-(4-(3-(2-chloro-6-fluorophenyl)-4-(cyclopropoxymethyl)isoxazol-5-yl)-5-(trifluoromethyl)-1H-pyrazol-1-yl)-1-methylcyclobutan-1-ol], in data set [1] (setting [2]), the half-life at 1 μM was above 1.67 h. Moreover, the IC50 in the data set on IL-17F (Homo sapiens, PBMC) is below 50 nM; in the data set on INF-γ (Homo sapiens, PBMC), below 50 nM; in the data set with IL-17A (Homo sapiens, PBMC), below 50 nM.
For the compound `C[C@]1(O)C[C@@H](n2ncc(-c3onc(-c4cccc(OCCN5CCOCC5)c4Cl)c3COC3CC3)c2C(F)(F)F)C1` [Example 92, 3-(4-(3-(2-chloro-3-(2-morpholinoethoxy)phenyl)-4-(cyclopropoxymethyl)isoxazol-5-yl)-5-(trifluoromethyl)-1H-pyrazol-1-yl)-1-methylcyclobutan-1-ol], the half-life at 1 μM in data set [1] (setting [3]) lay within 0.0333 to 0.167 h. For the same compound, the IC50 with IL-17F (Homo sapiens, PBMC) is below 50 nM; in the data set with INF-γ (Homo sapiens, PBMC), below 50 nM; with IL-17A (Homo sapiens, PBMC), below 50 nM.
Turning to `C[C@@H](O)Cn1ncc(-c2onc(-c3c(F)cccc3Cl)c2-c2ncccn2)c1C(F)(F)F` [Example 97, (R)-1-(4-(3-(2-chloro-6-fluorophenyl)-4-(pyrimidin-2-yl)isoxazol-5-yl)-5-(trifluoromethyl)-1H-pyrazol-1-yl)propan-2-ol], in data set [1] (setting [3]), the half-life at 1 μM was in the range of 0.667 to 1.67 h. For the same compound, the IC50 in the data set with IL-17F (Homo sapiens, PBMC) was below 50 nM; in the data set with INF-γ (Homo sapiens, PBMC), below 50 nM; in the data set with IL-17A (Homo sapiens, PBMC) it was below 50 nM.
As for `C[C@]1(O)C[C@@H](n2ncc(-c3onc(-c4c(F)cccc4Cl)c3-c3ncccn3)c2C(F)(F)F)C1` [Example 98, 3-(4-(3-(2-chloro-6-fluorophenyl)-4-(pyrimidin-2-yl)isoxazol-5-yl)-5-(trifluoromethyl)-1H-pyrazol-1-yl)-1-methylcyclobutanol], the half-life at 1 μM in data set [1] (setting [3]) is above 1.67 h. In addition, the IC50 is below 50 nM with IL-17F (Homo sapiens, PBMC); below 50 nM with INF-γ (Homo sapiens, PBMC); below 50 nM in the data set with IL-17A (Homo sapiens, PBMC).
On to `C[C@]1(O)C[C@@H](n2ncc(-c3onc(-c4c(F)cccc4Cl)c3-c3cnccn3)c2C(F)(F)F)C1` [Example 100, 3-{4-[3-(2-chloro-6-fluorophenyl)-4-(pyrazin-2-yl)-1,2-oxazol-5-yl]-5-(trifluoromethyl)-1H-pyrazol-1-yl}-1-methylcyclobutan-1-ol], for which, in data set [1] (setting [3]), the half-life at 1 μM was above 1.67 h. For the same compound, the IC50 was below 50 nM in the data set on IL-17F (Homo sapiens, PBMC); below 50 nM with INF-γ (Homo sapiens, PBMC); 50 to 500 nM with IL-17A (Homo sapiens, PBMC).
On to `COc1cccc(-c2noc(-c3cnn([C@H]4C[C@@](C)(O)C4)c3C(F)(F)F)c2-c2ncccn2)c1Cl` [Example 103, 3-{4-[3-(2-chloro-3-methoxyphenyl)-4-(pyrimidin-2-yl)-1,2-oxazol-5-yl]-5-(trifluoromethyl)-1H-pyrazol-1-yl}-1-methylcyclobutan-1-ol], for which, in data set [1] (setting [3]), the half-life at 1 μM was above 1.67 h. The IC50 with IL-17F (Homo sapiens, PBMC) was below 50 nM; in the data set with INF-γ (Homo sapiens, PBMC), below 50 nM; in the data set on IL-17A (Homo sapiens, PBMC) it was below 50 nM.
With `CC(C)(O)Cn1ncc(-c2onc(-c3c(F)cccc3Cl)c2-c2ncccn2)c1C(F)(F)F` [Example 118, 1-{4-[3-(2-chloro-6-fluorophenyl)-4-(pyrimidin-2-yl)-1,2-oxazol-5-yl]-5-(trifluoromethyl)-1H-pyrazol-1-yl}-2-methylpropan-2-ol], in data set [1] (setting [3]), the half-life at 1 μM was above 1.67 h. The IC50 in the data set with IL-17F (Homo sapiens, PBMC) was below 50 nM; in the data set with INF-γ (Homo sapiens, PBMC) it was below 50 nM; in the data set with IL-17A (Homo sapiens, PBMC) it was below 50 nM.
Consider `COc1cccc(-c2noc(-c3cnn(CCC(C)(C)O)c3C(F)(F)F)c2-c2ncccn2)c1Cl` [Example 121, 4-{4-[3-(2-chloro-3-methoxyphenyl)-4-(pyrimidin-2-yl)-1,2-oxazol-5-yl]-5-(trifluoromethyl)-1H-pyrazol-1-yl}-2-methylbutan-2-ol], for which the half-life at 1 μM in data set [1] (setting [3]) was above 1.67 h. Also, the IC50 with IL-17F (Homo sapiens, PBMC) was 50 to 500 nM; in the data set with INF-γ (Homo sapiens, PBMC), below 50 nM; in the data set on IL-17A (Homo sapiens, PBMC), below 50 nM.
